In PubChem BioAssay AID2060503 (Molecular Pharmacology Branch, DTP, NCI, 2025):

System: 817829-284-R-J1-PDC complex spheroids, viability
Assay: Anticancer human tumor 817829-284-R-J1-PDC patient-derived colon adenocarcinoma cell line growth inhibition [GQUAD]
Settings: second compound 3.16 µM; first compound 0.0999 µM; stronger effect = lower value
Procedure, shortened: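 Viability of tumor cells grown as complex spheroids with endothelial and stromal cells, exposed to drug combinations. Top concentration at or near clinical Cmax (else 10 microM), diluted in half-log increments.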
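Note: spheroids exposed to agents for 7 days before readout; percent viability relative to DMSO vehicle control taken as 100%.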

| SMILES | viability, T/C |
| --- | --- |
| Cc1[nH]c2ccccc2c1CCNCc1ccc(/C=C/C(=O)NO)cc1 + CN(C)c1ccc(Nc2c3ccc(NC(=O)CCN4CCCC4)cc3nc3cc(NC(=O)CCN4CCCC4)ccc23)cc1 | 5.12% |

Same assay, conditions: second compound 3.16 µM; first compound 0.1 µM; stronger effect = lower value

| SMILES | viability, T/C |
| --- | --- |
| C=CCn1c(=O)c2cnc(Nc3ccc(N4CCN(C)CC4)cc3)nc2n1-c1cccc(C(C)(C)O)n1 + CN(C)c1ccc(Nc2c3ccc(NC(=O)CCN4CCCC4)cc3nc3cc(NC(=O)CCN4CCCC4)ccc23)cc1 | 102% |
| CCCS(=O)(=O)Nc1ccc(F)c(C(=O)c2c[nH]c3ncc(-c4ccc(Cl)cc4)cc23)c1F + CN(C)c1ccc(Nc2c3ccc(NC(=O)CCN4CCCC4)cc3nc3cc(NC(=O)CCN4CCCC4)ccc23)cc1 | 112% |
| COc1ncnc(C2CC2)c1-c1ncc2cnn(Cc3ccc(-c4nc(C(F)(F)F)cn4C(C)C)cc3)c2n1 + CN(C)c1ccc(Nc2c3ccc(NC(=O)CCN4CCCC4)cc3nc3cc(NC(=O)CCN4CCCC4)ccc23)cc1 | 103% |
| O=C(NO)c1cnc(N2CCN(S(=O)(=O)c3ccc4ccccc4c3)CC2)nc1 + CN(C)c1ccc(Nc2c3ccc(NC(=O)CCN4CCCC4)cc3nc3cc(NC(=O)CCN4CCCC4)ccc23)cc1 | 89.4% |
| CC1COCCN1c1cc(C2(O)CC3CCC(C2)O3)c2cnn(-c3ccn[nH]3)c2n1 (stereo unspecified) + Cc1[nH]c2ccc(F)cc2c1-c1nc2c3cccnc3c3ncccc3c2[nH]1 | 6.27% |

Same assay, conditions: second compound 3.16 µM; first compound 0.316 µM; stronger effect = lower value

| SMILES | viability, T/C |
| --- | --- |
| C=CCn1c(=O)c2cnc(Nc3ccc(N4CCN(C)CC4)cc3)nc2n1-c1cccc(C(C)(C)O)n1 + CN(C)c1ccc(Nc2c3ccc(NC(=O)CCN4CCCC4)cc3nc3cc(NC(=O)CCN4CCCC4)ccc23)cc1 | 26.4% |
| CCCS(=O)(=O)Nc1ccc(F)c(C(=O)c2c[nH]c3ncc(-c4ccc(Cl)cc4)cc23)c1F + CN(C)c1ccc(Nc2c3ccc(NC(=O)CCN4CCCC4)cc3nc3cc(NC(=O)CCN4CCCC4)ccc23)cc1 | 95.6% |
| COc1ncnc(C2CC2)c1-c1ncc2cnn(Cc3ccc(-c4nc(C(F)(F)F)cn4C(C)C)cc3)c2n1 + CN(C)c1ccc(Nc2c3ccc(NC(=O)CCN4CCCC4)cc3nc3cc(NC(=O)CCN4CCCC4)ccc23)cc1 | 100% |
| Cc1[nH]c2ccccc2c1CCNCc1ccc(/C=C/C(=O)NO)cc1 + CN(C)c1ccc(Nc2c3ccc(NC(=O)CCN4CCCC4)cc3nc3cc(NC(=O)CCN4CCCC4)ccc23)cc1 | 0.15% |
| O=C(NO)c1cnc(N2CCN(S(=O)(=O)c3ccc4ccccc4c3)CC2)nc1 + CN(C)c1ccc(Nc2c3ccc(NC(=O)CCN4CCCC4)cc3nc3cc(NC(=O)CCN4CCCC4)ccc23)cc1 | 4.33% |
| CC1COCCN1c1cc(C2(O)CC3CCC(C2)O3)c2cnn(-c3ccn[nH]3)c2n1 (stereo unspecified) + Cc1[nH]c2ccc(F)cc2c1-c1nc2c3cccnc3c3ncccc3c2[nH]1 | 4.26% |

Same assay, conditions: second compound 3.16 µM; first compound 1 µM; stronger effect = lower value

| SMILES | viability, T/C |
| --- | --- |
| C=CCn1c(=O)c2cnc(Nc3ccc(N4CCN(C)CC4)cc3)nc2n1-c1cccc(C(C)(C)O)n1 + CN(C)c1ccc(Nc2c3ccc(NC(=O)CCN4CCCC4)cc3nc3cc(NC(=O)CCN4CCCC4)ccc23)cc1 | 10.9% |
| CCCS(=O)(=O)Nc1ccc(F)c(C(=O)c2c[nH]c3ncc(-c4ccc(Cl)cc4)cc23)c1F + CN(C)c1ccc(Nc2c3ccc(NC(=O)CCN4CCCC4)cc3nc3cc(NC(=O)CCN4CCCC4)ccc23)cc1 | 96.1% |
| COc1ncnc(C2CC2)c1-c1ncc2cnn(Cc3ccc(-c4nc(C(F)(F)F)cn4C(C)C)cc3)c2n1 + CN(C)c1ccc(Nc2c3ccc(NC(=O)CCN4CCCC4)cc3nc3cc(NC(=O)CCN4CCCC4)ccc23)cc1 | 93.2% |
| O=C(NO)c1cnc(N2CCN(S(=O)(=O)c3ccc4ccccc4c3)CC2)nc1 + CN(C)c1ccc(Nc2c3ccc(NC(=O)CCN4CCCC4)cc3nc3cc(NC(=O)CCN4CCCC4)ccc23)cc1 | 0.21% |
| CC1COCCN1c1cc(C2(O)CC3CCC(C2)O3)c2cnn(-c3ccn[nH]3)c2n1 (stereo unspecified) + Cc1[nH]c2ccc(F)cc2c1-c1nc2c3cccnc3c3ncccc3c2[nH]1 | 3.69% |

Same assay, conditions: second compound 3.16 µM; first compound 3.16 µM; stronger effect = lower value

| SMILES | viability, T/C |
| --- | --- |
| C=CCn1c(=O)c2cnc(Nc3ccc(N4CCN(C)CC4)cc3)nc2n1-c1cccc(C(C)(C)O)n1 + CN(C)c1ccc(Nc2c3ccc(NC(=O)CCN4CCCC4)cc3nc3cc(NC(=O)CCN4CCCC4)ccc23)cc1 | 7.22% |
| CCCS(=O)(=O)Nc1ccc(F)c(C(=O)c2c[nH]c3ncc(-c4ccc(Cl)cc4)cc23)c1F + CN(C)c1ccc(Nc2c3ccc(NC(=O)CCN4CCCC4)cc3nc3cc(NC(=O)CCN4CCCC4)ccc23)cc1 | 76.3% |
| COc1ncnc(C2CC2)c1-c1ncc2cnn(Cc3ccc(-c4nc(C(F)(F)F)cn4C(C)C)cc3)c2n1 + CN(C)c1ccc(Nc2c3ccc(NC(=O)CCN4CCCC4)cc3nc3cc(NC(=O)CCN4CCCC4)ccc23)cc1 | 103% |
| O=C(NO)c1cnc(N2CCN(S(=O)(=O)c3ccc4ccccc4c3)CC2)nc1 + CN(C)c1ccc(Nc2c3ccc(NC(=O)CCN4CCCC4)cc3nc3cc(NC(=O)CCN4CCCC4)ccc23)cc1 | 0.12% |
| CC1COCCN1c1cc(C2(O)CC3CCC(C2)O3)c2cnn(-c3ccn[nH]3)c2n1 (stereo unspecified) + Cc1[nH]c2ccc(F)cc2c1-c1nc2c3cccnc3c3ncccc3c2[nH]1 | 3.38% |

Same assay, conditions: second compound 3.16 µM; first compound 10 µM; stronger effect = lower value

| SMILES | viability, T/C |
| --- | --- |
| C=CCn1c(=O)c2cnc(Nc3ccc(N4CCN(C)CC4)cc3)nc2n1-c1cccc(C(C)(C)O)n1 + CN(C)c1ccc(Nc2c3ccc(NC(=O)CCN4CCCC4)cc3nc3cc(NC(=O)CCN4CCCC4)ccc23)cc1 | 5.95% |
| CCCS(=O)(=O)Nc1ccc(F)c(C(=O)c2c[nH]c3ncc(-c4ccc(Cl)cc4)cc23)c1F + CN(C)c1ccc(Nc2c3ccc(NC(=O)CCN4CCCC4)cc3nc3cc(NC(=O)CCN4CCCC4)ccc23)cc1 | 19.1% |
| COc1ncnc(C2CC2)c1-c1ncc2cnn(Cc3ccc(-c4nc(C(F)(F)F)cn4C(C)C)cc3)c2n1 + CN(C)c1ccc(Nc2c3ccc(NC(=O)CCN4CCCC4)cc3nc3cc(NC(=O)CCN4CCCC4)ccc23)cc1 | 97.5% |
| O=C(NO)c1cnc(N2CCN(S(=O)(=O)c3ccc4ccccc4c3)CC2)nc1 + CN(C)c1ccc(Nc2c3ccc(NC(=O)CCN4CCCC4)cc3nc3cc(NC(=O)CCN4CCCC4)ccc23)cc1 | 0.15% |
| CC1COCCN1c1cc(C2(O)CC3CCC(C2)O3)c2cnn(-c3ccn[nH]3)c2n1 (stereo unspecified) + Cc1[nH]c2ccc(F)cc2c1-c1nc2c3cccnc3c3ncccc3c2[nH]1 | 1.97% |

Same assay, conditions: second compound 10 µM; first compound 0.000999 µM; stronger effect = lower value

| SMILES | viability, T/C |
| --- | --- |
| Cc1[nH]c2ccccc2c1CCNCc1ccc(/C=C/C(=O)NO)cc1 + CN(C)c1ccc(Nc2c3ccc(NC(=O)CCN4CCCC4)cc3nc3cc(NC(=O)CCN4CCCC4)ccc23)cc1 | 99.2% |

Same assay, conditions: second compound 10 µM; first compound 0.00316 µM; stronger effect = lower value

| SMILES | viability, T/C |
| --- | --- |
| Cc1[nH]c2ccccc2c1CCNCc1ccc(/C=C/C(=O)NO)cc1 + CN(C)c1ccc(Nc2c3ccc(NC(=O)CCN4CCCC4)cc3nc3cc(NC(=O)CCN4CCCC4)ccc23)cc1 | 113% |

Same assay, conditions: second compound 10 µM; first compound 0.00999 µM; stronger effect = lower value

| SMILES | viability, T/C |
| --- | --- |
| Cc1[nH]c2ccccc2c1CCNCc1ccc(/C=C/C(=O)NO)cc1 + CN(C)c1ccc(Nc2c3ccc(NC(=O)CCN4CCCC4)cc3nc3cc(NC(=O)CCN4CCCC4)ccc23)cc1 | 78.6% |

Same assay, conditions: second compound 10 µM; first compound 0.0316 µM; stronger effect = lower value

| SMILES | viability, T/C |
| --- | --- |
| C=CCn1c(=O)c2cnc(Nc3ccc(N4CCN(C)CC4)cc3)nc2n1-c1cccc(C(C)(C)O)n1 + CN(C)c1ccc(Nc2c3ccc(NC(=O)CCN4CCCC4)cc3nc3cc(NC(=O)CCN4CCCC4)ccc23)cc1 | 104% |
